Target: T1, glutathione S-transferase (GST)-fused full-length human Syk protein (Homo sapiens, UniProt P43405)
T1 construct: (GST)-fused full-length human Syk protein; GST (glutathione S-transferase); purchased Carna Biosciences
Test: Syk enzyme assay
Assay type: biochemical
Conditions: Syk enzyme assay, Test Example 1; read-out: IC50 of Syk-inhibitory activity
Description: A glutathione S-transferase (GST)-fused full-length human Syk protein (Carna Biosciences), which had been generated using a Baculovirus expression system, was used in the Syk enzyme assay.
15 μl of a reaction solution (1.2 ng Syk, 20 mM HEPES, 10 mM MgCl2, 50 mM NaCl, 2 mM DTT, 0.05% BSA, pH 7.0) containing a Syk protein and a predetermined concentration of a test compound was shaken for 2 minutes, and it was then left at rest at room temperature for 13 minutes. Thereafter, 5 μl of Biotin-EDPDYEWPSA-NH2 (final concentration: 0.4 μM) serving as a substrate peptide and 5 μl of ATP (final concentration: 27 μM) were added to the reaction solution, and the obtained mixture was then shaken for 2 minutes. The reaction solution was further left at rest at room temperature for 40 minutes, so as to carry out an enzyme reaction.
Thereafter, 50 μl of a reaction termination solution [5 μg/ml Streptavidin, 0.18 μg/ml PT66-K, 30 mM HEPES (pH 7.0), 150 mM KF, 75 mM EDTA, 0.15% BSA, 0.075% Tween20], which contained Streptavidin-Xlent (Cisbio) and Mab PT66-K (Cisbio), was added to the reaction solution to terminate the enzyme reaction. At the same time, the reaction solution was left at rest at room temperature for 1 hour, so as to carry out an antigen-antibody reaction. Thereafter, using EnVision (PerkinElmer), the time-resolved fluorescence was measured at 615 nm and 665 nm, so that the phosphorylation of the substrate peptide was measured.
In addition, the following are standards for evaluating IC50 of Syk-inhibitory activity used in Table 21. • A: Up to 10 nM • B: 10 to 50 nM • C: 50 to 100 nM • D: 100 to 1000 nM The set of numbers (XYZ-xyz) given in each Example number column indicates the corresponding Example number (Example XYZ-xyz) in Table 21.

Row | Compound | IC50 [nM]
1 | NC(=O)c1cc(F)c(N[C@H](c2ccccc2)[C@@H](N)c2ccccc2)nc1Nc1ccc2ncccc2c1 (racemic) [Example 006-135, 6-(((1R,2S)-2-amino-1,2-diphenylethyl)amino)-5-fluoro-2-(quinolin-6-ylamino)nicotinamide 6-(((1S,2R)-2-amino-1,2-diphenylethyl)amino)-5-fluoro-2-(quinolin-6-ylamino)nicotinamide] | < 10
2 | Cn1ncc2cc(Nc3nc(N[C@H](c4ccccc4)[C@@H](N)c4ccccc4)c(F)cc3C(N)=O)ccc21 (racemic) [Example 006-136, 6-(((1R,2S)-2-amino-1,2-diphenylethyl)amino)-5-fluoro-2-((1-methyl-1H-indazol-5-yl)amino)nicotinamide 6-(((1S,2R)-2-amino-1,2-diphenylethyl)amino)-5-fluoro-2-((1-methyl-1H-indazol-5-yl)amino)nicotinamide] | < 10
3 | COc1cc(Nc2nc(N[C@H](c3ccccc3)[C@@H](N)c3ccccc3)c(F)cc2C(N)=O)cc(OC)c1 (racemic) [Example 006-137, 6-(((1R,2S)-2-amino-1,2-diphenylethyl)amino)-2-((3,5-dimethoxyphenyl)amino)-5-fluoronicotinamide 6-(((1S,2R)-2-amino-1,2-diphenylethyl)amino)-2-((3,5-dimethoxyphenyl)amino)-5-fluoronicotinamide] | 10 to 50
4 | NC(=O)c1cc(F)c(N[C@H](c2ccccc2)[C@@H](N)c2ccccc2)nc1Nc1cccc(-n2nccn2)c1 (racemic) [Example 006-138, 2-((3-(2H-1,2,3-triazol-2-yl)phenyl)amino)-6-(((1R,2S)-2-amino-1,2-diphenylethyl)amino)-5-fluoronicotinamide 2-((3-(2H-1,2,3-triazol-2-yl)phenyl)amino)-6-(((1S,2R)-2-amino-1,2-diphenylethyl)amino)-5-fluoronicotinamide] | 10 to 50
5 | Cc1cncc(Nc2nc(N[C@H](c3ccccc3)[C@@H](N)c3ccccc3)c(F)cc2C(N)=O)c1 (racemic) [Example 006-140, 6-(((1R,2S)-2-amino-1,2-diphenylethyl)amino)-5-fluoro-2-((5-methylpyridin-3-yl)amino)nicotinamide 6-(((1S,2R)-2-amino-1,2-diphenylethyl)amino)-5-fluoro-2-((5-methylpyridin-3-yl)amino)nicotinamide] | 50 to 100
6 | NC(=O)c1cc(F)c(N[C@H](c2ccccc2)[C@@H](N)c2ccccc2)nc1Nc1ccc2cccnc2c1 (racemic) [Example 006-141, 6-(((1R,2S)-2-amino-1,2-diphenylethyl)amino)-5-fluoro-2-(quinolin-7-ylamino)nicotinamide 6-(((1S,2R)-2-amino-1,2-diphenylethyl)amino)-5-fluoro-2-(quinolin-7-ylamino)nicotinamide] | 100 to 1000
7 | COCCOc1ccc2cc(Nc3nc(N[C@H](C)[C@H](C)N)c(F)cc3C(N)=O)cnc2c1 (racemic) [Example 006-183, 6-(((2R,3S)-3-aminobutan-2-yl)amino)-5-fluoro-2-((7-(2-methoxyethoxy)quinolin-3-yl)amino)nicotinamide 6-(((2S,3R)-3-aminobutan-2-yl)amino)-5-fluoro-2-((7-(2-methoxyethoxy)quinolin-3-yl)amino)nicotinamide] | < 10
8 | C[C@H](N)[C@@H](C)Nc1nc(Nc2ccnc(-n3nccn3)c2)c(C(N)=O)cc1F (racemic) [Example 006-189, 2-((2-(2H-1,2,3-triazol-2-yl)pyridin-4-yl)amino)-6-(((2R,3S)-3-aminobutan-2-yl)amino)-5-fluoronicotinamide 2-((2-(2H-1,2,3-triazol-2-yl)pyridin-4-yl)amino)-6-(((2S,3R)-3-aminobutan-2-yl)amino)-5-fluoronicotinamide] | 10 to 50
9 | COCCn1ncc2cc(Nc3nc(N[C@H](C)[C@H](C)N)c(F)cc3C(N)=O)ccc21 (racemic) [Example 006-197, 6-(((2R,3S)-3-aminobutan-2-yl)amino)-5-fluoro-2-((1-(2-methoxyethyl)-1H-indazol-5-yl)amino)nicotinamide 6-(((2S,3R)-3-aminobutan-2-yl)amino)-5-fluoro-2-((1-(2-methoxyethyl)-1H-indazol-5-yl)amino)nicotinamide] | 10 to 50
10 | CC(=O)Nc1cc(Nc2nc(N[C@@H]3CCCC[C@@H]3N)c(F)cc2C(N)=O)ccn1 (relative stereo) [Example 004-048] | 10 to 50
11 | CN1CCN(c2cncc(Nc3nc(N[C@@H]4CCCC[C@@H]4N)c(F)cc3C(N)=O)c2)CC1 (relative stereo) [Example 004-052] | 10 to 50
12 | Cc1cc(Nc2nc(N[C@@H]3CCCC[C@@H]3N)c(F)cc2C(N)=O)cs1 (relative stereo) [Example 004-057] | < 10
13 | NC(=O)c1cc(F)c(N[C@@H]2CCCC[C@@H]2N)nc1Nc1cc(N2CCOCC2)nc2[nH]ccc12 (relative stereo) [Example 004-066, 6-(cis-2-aminocyclohexylamino)-5-fluoro-2-((6-morpholino-1H-pyrrolo[2,3-b]pyridin-4-yl)-amino)nicotinamide] | < 10
14 | NC(=O)c1cc(F)c(N[C@@H]2CCCC[C@@H]2N)nc1Nc1cc(-n2nccn2)nc2[nH]ccc12 (relative stereo) [Example 004-067, 2-((6-(2H-1,2,3-triazol-2-yl)-1H-pyrrolo[2,3-b]pyridin-4-yl)amino)-6-(cis-2-aminocyclohexylamino)-5-fluoronicotinamide] | < 10
15 | NC(=O)c1cc(F)c(N[C@@H]2CCCC[C@@H]2N)nc1Nc1ccc2[nH]ccc2c1 (relative stereo) [Example 004-070, 2-((1H-indol-5-yl)amino)-6-(cis-2-aminocyclohexylamino)-5-fluoronicotinamide] | < 10
16 | NC(=O)c1cc(F)c(N[C@@H]2CCCC[C@@H]2N)nc1Nc1cc(F)c2c(ccn2CCN2CCOCC2)c1 (relative stereo) [Example 004-080, 6-(cis-2-aminocyclohexylamino)-5-fluoro-2-((7-fluoro-1-(2-morpholinoethyl)-1H-indol-5-yl)amino)nicotinamide] | < 10
17 | COCCn1ccc2cc(Nc3nc(N[C@@H]4CCCC[C@@H]4N)c(F)cc3C(N)=O)cc(F)c21 (relative stereo) [Example 004-081, 6-(cis-2-aminocyclohexylamino)-5-fluoro-2-((7-fluoro-1-(2-methoxyethyl)-1H-indol-5-yl)-amino)nicotinamide] | < 10
18 | NC(=O)c1cc(F)c(N[C@@H]2CCCC[C@@H]2N)nc1Nc1cc(F)cc2c1ccn2CCN1CCOCC1 (relative stereo) [Example 004-083, 6-(cis-2-aminocyclohexylamino)-5-fluoro-2-((6-fluoro-1-(2-morpholinoethyl)-1H-indol-4-yl)amino)nicotinamide] | < 10
19 | COCCn1ccc2c(Nc3nc(N[C@@H]4CCCC[C@@H]4N)c(F)cc3C(N)=O)cc(F)cc21 (relative stereo) [Example 004-084, 6-(cis-2-aminocyclohexylamino)-5-fluoro-2-((6-fluoro-1-(2-methoxyethyl)-1H-indol-4-yl)amino)nicotinamide] | < 10
20 | NC(=O)c1cc(F)c(N[C@@H]2CCCC[C@@H]2N)nc1Nc1cc(C(F)(F)F)cc2[nH]ccc12 (relative stereo) [Example 004-085, 6-(cis-2-aminocyclohexylamino)-5-fluoro-2-((6-(trifluoromethyl)-1H-indol-4-yl)amino)-nicotinamide] | < 10
21 | NC(=O)c1cc(F)c(N[C@@H]2CCCC[C@@H]2N)nc1Nc1ccc2c(cnn2CC2CC2)c1 (relative stereo) [Example 004-090, 6-(cis-2-aminocyclohexylamino)-2-((1-(cyclopropylmethyl)-1H-indazol-5-yl)amino)-5-fluoronicotinamide] | 10 to 50
22 | NC(=O)c1cc(F)c(N[C@@H]2CCCC[C@@H]2N)nc1Nc1cncc(C(F)(F)F)c1 (relative stereo) [Example 004-098, 6-(cis-2-aminocyclohexylamino)-5-fluoro-2-((5-(trifluoromethyl)pyridin-3-yl)amino)-nicotinamide] | 10 to 50

Same assay, conditions: read-out: Syk-inhibitory activity (IC50)

Row | Compound | IC50 [nM]
23 | NC(=O)c1cc(F)c(N[C@@H]2CCCC[C@@H]2N)nc1Nc1ccc(-c2ccccc2)nc1 (relative stereo) [Example 2-9, 6-(cis-2-aminocyclohexylamino)-5-fluoro-2-((6-phenylpyridin-3-yl)amino)nicotinamide] | ≤ 1000
24 | COc1ccc(Nc2nc(N[C@@H]3CCCC[C@@H]3N)c(F)cc2C(N)=O)cn1 (relative stereo) [Example 2-10, 6-(cis-2-aminocyclohexylamino)-5-fluoro-2-((6-methoxypyridin-3-yl)amino)nicotinamide] | ≤ 1000
